Source: patent US6057371A, “Sigma receptor ligands and the use thereof” (Virginia Commonwealth University, priority 1992, dated 2000)
Like-named read-outs stand apart in the source and are kept apart here.

Legend:
[1] = molecular target: PCP receptor; assay: PCP receptor binding, ^3 H-MK-801; set-up: species or system rat; conditions: Table 4
Description: PCP receptor binding assays against ^3 H-MK-801 were conducted as described by Keana et al., Proc. Natl. Acad. Sci (USA) 86: 5631-5635 (1989); Keana et al., Life Sciences 43: 965-973 (1988). For (+) ^3 H-MK-801 binding, 1 nM of radioligand was incubated with about 100 ug of thawed rat brain membrane protein for 4 hr at room temperature. The assays were carried out in 5 mM Tris/acetate and were stopped by rapid filtration through Whatman GF/B or Schleicher & Schuell no. 32 glass fiber filters (presoaked in 0.05% polyethylenamine).

[2] = molecular target: T1, 5-HT1A receptor (Rattus norvegicus, UniProt P19327); assay: biochemical; format: binding; set-up: 47: 529-540 (1986); from tissue; host or cells: brain tissue, inferred from the cited method (rat frontal cortex)
T1 sequence (P19327 1-422): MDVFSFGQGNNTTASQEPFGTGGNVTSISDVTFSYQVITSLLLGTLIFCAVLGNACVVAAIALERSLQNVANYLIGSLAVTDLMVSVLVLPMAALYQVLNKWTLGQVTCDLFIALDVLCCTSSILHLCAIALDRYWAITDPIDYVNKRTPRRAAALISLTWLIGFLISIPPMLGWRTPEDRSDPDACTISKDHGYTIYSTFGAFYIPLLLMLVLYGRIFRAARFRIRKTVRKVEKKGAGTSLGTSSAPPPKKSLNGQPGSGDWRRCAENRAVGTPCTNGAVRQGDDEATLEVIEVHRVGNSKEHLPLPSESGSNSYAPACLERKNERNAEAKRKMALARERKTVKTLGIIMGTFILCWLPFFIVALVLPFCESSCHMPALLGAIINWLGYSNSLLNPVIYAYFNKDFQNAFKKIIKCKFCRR
Description: Further sigma receptor binding assays against [^3 H]DTG and 5HT-1A binding assays were conducted according to the procedure outlined in the previous examples.

[3] = molecular target: T2, sigma-2 binding site (Cavia porcellus, UniProt H0V073); assay: biochemical; set-up: species or system guinea pig; conditions: for Ki: Table 10, read-out: SIGMA-2 KI vs. 3H-DTG + PENTAZOCINE MEAN
T2 construct: Guinea pig whole membrane preparations (P2 microsomal fraction); from tissue; host or cells: guinea pig membranes (P2 microsomal fraction), as described by Weber et al; brain inferred from the sister test b489
T2 sequence (H0V073 1-176): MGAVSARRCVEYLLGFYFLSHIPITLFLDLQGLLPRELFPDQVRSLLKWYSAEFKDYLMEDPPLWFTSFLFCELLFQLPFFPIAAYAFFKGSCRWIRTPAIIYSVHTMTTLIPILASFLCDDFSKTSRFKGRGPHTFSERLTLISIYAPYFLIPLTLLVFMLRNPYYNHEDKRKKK
Description: For the standard equilibrium assay, the mixtures were incubated for 30 min. at room temperature, then filtered and the radioactivity determined as described above.

[4] = molecular target: sigma receptor; assay: Sigma receptor binding, [^3 H]DTG, brain membranes (both sigma-1 and sigma-2 sites); set-up: species or system guinea pig; conditions: for IC50: Table 6, [^3 H]DTG
[5] = molecular target: T3, sigma-1 binding site (Cavia porcellus, UniProt Q60492); assay: biochemical; set-up: species or system guinea pig
T3 construct: Guinea pig whole membrane preparations (P2 microsomal fraction); from tissue; host or cells: guinea pig membranes (P2 microsomal fraction), as described by Weber et al; brain inferred from the sister test b489
T3 sequence (Q60492 whole entry): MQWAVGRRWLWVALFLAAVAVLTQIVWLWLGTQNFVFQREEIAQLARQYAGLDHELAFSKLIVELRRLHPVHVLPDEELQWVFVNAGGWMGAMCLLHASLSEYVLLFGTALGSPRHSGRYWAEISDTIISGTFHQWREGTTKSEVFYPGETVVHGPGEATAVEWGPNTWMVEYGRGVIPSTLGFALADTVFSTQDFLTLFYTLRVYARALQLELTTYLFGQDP
Description: [^3 H]DTG was purchased from DuPont/NEN.
The radioactivity on the filters was determined by scintillation spectrometry at an efficiency of about 50% using Cytoscint (ICN) scintillation fluid.

[6] = Table 10, read-out: SIGMA-1 KI vs. 3H-PENTAZOCINE MEAN
[7] = less than about 0.1, see Table 10
[8] = Table 6, read-out: 5HT-1A (nM) MEAN
[9] = Table 7, Phenyl-(CH2)x -NH--(CH2)y -Phenyl, read-out: Ki

SMILES | IC50 [1] [µM] | Ratio 5-HT1A /σ ([2]; Table 5) | IC50 ([2]; Table 5, read-out: 5-HT1A IC50) [nM] | Ki [3] [µM] | IC50 [4] [nM] | Ki [5, 6] [µM] | IC50 [2, 8] [nM] | other results
FC(F)(F)c1cccc(N2CCN(CCc3ccccc3)CC2)c1 [Compound 37] | > 10 | 2.6 | 20.3 | – | – | – | – | –
c1ccc(CCCN2CCC(c3ccccc3)CC2)cc1 [Compound 39] | > 10 | 75 | 89.6 | – | – | – | – | –
CC(Cc1ccccc1)NCC1CC1 (stereo not shown) [Compound 24] | > 10 | 1.4 | 956 | – | – | – | – | –
C[C@@H](N)Cc1ccccc1 [Compound 28] | > 10 | – | – | – | – | – | – | –
CC(NCCCc1ccccc1)C(=O)c1ccccc1 (stereo not shown) [Compound 13] | > 10 | 2 | 288 | – | – | – | – | –
C[C@@H](Cc1ccccc1)NCCCc1ccc2ccccc2c1 [Compound 42] | > 10 | 110 | 572 | – | – | – | – | –
c1ccc(CN2CCOC(c3ccccc3)C2)cc1 (stereo not shown) [Compound 35] | > 10 | 40 | 10400 | – | – | – | – | –
CCCN[C@H](C)Cc1ccccc1 [Compound 5] | > 10 | .88 | 1500 | – | – | – | – | –
C[C@H](Cc1ccccc1)NCC#Cc1ccccc1 [Compound 25] | > 10 | 7.3 | 753 | – | – | – | – | –
Clc1ccc(C2=CCN(CCCCc3ccccc3)CC2)cc1 [Compound 38] | > 10 | 25 | 107 | – | – | – | – | –
c1ccc(CCCNC2Cc3ccccc3C2)cc1 [Compound 14] | > 10 | 5.4 | 154 | – | – | – | – | –
CCOc1ccc(CC(C)NCCCc2ccccc2)cc1 (racemic) [Compound 83, N-(3-phenylpropyl)-1-(p-ethoxyphenyl)-2-propylamine] | – | – | – | 0.0335 | 7.08 | 0.00338 | 77.7 | IC50 ([3]; Table 17, read-out: IC50 (nM) at sigma-2): 34 nM; S1/S2 Ratio ([5]; Table 10, sigma-1/sigma-2): 0.101; IC50 ([5]; Table 12, read-out: IC50 (nM) at sigma-1): 3.4 nM; IC50 ratio of sigma-1/sigma-2 (sigma-1 selective compounds) [5, 7]: less than 0.1
C[C@@H](Cc1ccccc1)N(C)CCCc1ccccc1 [Compound 113, N-Methyl-N-(3-phenylpropyl)-1-phenylisopropylamine] | – | – | – | 0.00487 | 2.22 | 0.00051 | 2150 | S1/S2 Ratio ([5]; Table 10, sigma-1/sigma-2): 0.105; IC50 ratio of sigma-1/sigma-2 (sigma-1 selective compounds) [5, 7]: less than 0.1
c1ccc(CCCCCNCCCc2ccccc2)cc1 [Compound 111, N-(5-phenylpentyl)-3-phenylpropylamine] | – | – | – | 0.00984 | 2.73 | 0.00028 | 92.2 | IC50 ([3]; Table 18, read-out: IC50 (nM) at sigma-2): 9.8 nM; Ki [4, 9]: 0.0018 µM; S1/S2 Ratio ([5]; Table 10, sigma-1/sigma-2): 0.029; IC50 ([5]; Table 15, read-out: IC50 (nM) at sigma-1): 0.28 nM; IC50 ratio of sigma-1/sigma-2 (sigma-1 selective compounds) [5, 7]: less than 0.1
c1ccc(CCCCN2CCN(Cc3ccccc3)CC2)cc1 [Compound 79, N-(4-phenylbutyl)-N'-benzylpiperazine] | – | – | – | 0.00699 | 2.25 | 0.00017 | 173 | S1/S2 Ratio ([5]; Table 10, sigma-1/sigma-2): 0.024; IC50 ratio of sigma-1/sigma-2 (sigma-1 selective compounds) [5, 7]: less than 0.1
c1ccc(CNCCCCCC2CCCCC2)cc1 [Compound 94, N-(5-cyclohexylpentyl)benzylamine] | – | – | – | 0.0436 | 4.02 | – | 5550 | Ki ([4]; Examples 5 and 6, listed as N-benzyl-(5-cyclohexyl)pentylamine, read-out: sigma receptor Ki): 0.0013 µM; Ki ([4]; running text, Examples 5 and 6, read-out: sigma receptor Ki): 0.0034 µM; IC50 [5]: 0.81 nM; IC50 ratio of sigma-1/sigma-2 (sigma-1 selective compounds) [5]: less than 0.1; Ki ([5]; SIGMA-1 KI vs. 3H-P[…]): 0.00081 µM; S1/S2 Ratio ([5]; guinea pig, microsomes): 0.019
c1ccc(CCCCCCCNCCc2ccccc2)cc1 [Compound 91, N-(7-phenylheptyl)phenethylamine] | – | – | – | 0.0332 | 4.07 | 0.00147 | 732 | Ki [4, 9]: 0.0041 µM; IC50 ratio of sigma-1/sigma-2 (sigma-1 selective compounds) [5]: less than 0.1; S1/S2 Ratio ([5]; guinea pig, microsomes): 0.044; Ki ([5]; sigma-1 binding affinity): 0.0015 µM
c1ccc(CCCCNCc2ccccc2)cc1 [Compound 75, N-(4-phenylbutyl)benzylamine] | – | – | – | 0.162 | 13.6 | 0.00961 | 255 | IC50 ([3]; Example 9, read-out: sigma-2 IC50): 160 nM; Ki [4, 9]: 0.013 µM; S1/S2 Ratio ([5]; Table 10, sigma-1/sigma-2): 0.059; IC50 ratio of sigma-1/sigma-2 (sigma-1 selective compounds) [5, 7]: less than 0.1
